Experiment: Stability testing of Formulation 1 and 1·Ms by HPLC (assay and total related substances) after storage in a stability chamber
Type: physicochemical
Procedure: Microcrystalline cellulose (392.43 mg), dicalcium phosphate (735.35 mg), sodium starch glycolate (45.09 mg), silicon dioxide (15.03 mg), and magnesium stearate (15.03 mg) were combined and blended with a vortex mixer in the amounts and proportions indicated in Table 1. The resulting mixture was filtered through a #35 mesh sieve to give Mixture A. A 20.05 mg portion of Mixture A was combined with 5.0 mg of 1·Ms (C27H30N6O3·1.06 CH3SO3H, purity=100%) of crystalline Form 2A in a 40 mL glass vial and blended thoroughly with a vortex mixer to afford Formulation 1, which has a theoretical composition as calculated in Table 1.
All samples were stored in a stability chamber at temperatures of −20° C., 50° C., and at 40° C./75% relative humidity for 2-week and 4-week periods and analyzed for stability. Closed-dish samples were capped and sealed with Parafilm. Open-dish samples were covered by aluminum foil that was pierced with a pinhole.
After reaching room temperature, each sample was added to a 40 mL sample vial containing 10 mL of diluent (0.05% TFA in H2O:MeCN=1:1 v/v) and sonicated for 10 minutes with occasional shaking. All samples were centrifuged at 14,000 rpm for 10 minutes and the supernatant was analyzed by HPLC. The working standard solution (5 mg of 1 Ms in 10 mL of diluent) was used as a reference. Results for Formulation 1 are shown in Table 3, in which purity is measured as percent (%) versus total related substances (TRS). As shown in […] and FIGS. 7 to 9, Formulation 1 was stable over an extended period.

[1] = 40° C. @ 75% relative humidity, 2 weeks
[2] = 40° C. @ 75% relative humidity, 4 weeks

Q: For `C=CC(=O)Nc1cc(Nc2nccc(-c3cn(C)c4ccccc34)n2)c(OC)cc1OCCN(C)C` [1 · Ms, N-(2-(2-(Dimethylamino)ethoxy)-4-methoxy-5-((4-(1-methyl-1H-indol-3-yl)pyrimidin-2-yl)amino)phenyl)acrylamide methanesulfonate (1:1)], which Assay [1] is on record?
A: Its Assay is 101.1%.

Q: What about the “TRS (total related substances)” value [1] of the same compound?
A: Its value is 0.00%.

Q: And the Assay [2]?
A: Its Assay is 99.3%.

Q: And the “TRS (total related substances)” value [2]?
A: Its value is 0.00%.

Q: What about the Assay (50° C., 2 weeks) of the same compound?
A: The Assay was 101.4%.

Q: And the “TRS (total related substances)” value (50° C., 2 weeks)?
A: The value was 0.00%.

Q: What about the Assay (50° C., 4 weeks) of the same compound?
A: The Assay was 99.9%.

Q: What about the “TRS (total related substances)” value (50° C., 4 weeks) of the same compound?
A: Its value is 0.00%.

Q: What about the Assay (Initial) of the same compound?
A: Its Assay is 100.2%.

Q: And the “TRS (total related substances)” value (Initial)?
A: The value was 0.00%.
